Legend:
MDA-MB-231 = assay: Antitumor activity against human MDA-MB-231 cells harboring wild-type BRCA incubated for 72 hrs by MTT assay; format: functional, cell-based; conditions: MDA-MB-231, 72 h
MDA-MB-468 = assay: Antitumor activity against human MDA-MB-468 cells harboring wild-type BRCA incubated for 72 hrs by MTT assay; format: functional, cell-based; conditions: MDA-MB-468, 72 h
HCC1937 = assay: Antitumor activity against BRCA 1-deficient human HCC1937 cells incubated for 72 hrs by MTT assay; format: functional, cell-based; conditions: HCC1937, 72 h
MDA-MB-436 = assay: Antitumor activity against BRCA 1-deficient human MDA-MB-436 cells incubated for 72 hrs by MTT assay; format: functional, cell-based; conditions: MDA-MB-436, 72 h
[1] = Cytotoxicity against human MCF-10A cells incubated for 72 hrs by MTT assay; format: toxicity, cell-based

SMILES	IC50 (MDA-MB-231) [nM]	IC50 (MDA-MB-468) [nM]	IC50 (HCC1937) [nM]	IC50 (MDA-MB-436) [nM]	IC50 at 72 h [1] [nM]
COc1cc(OC)c(/C=C/S(=O)(=O)Cc2ccc(OC)c(NCCCCCC(=O)N3CCN(C(=O)c4cc(Cc5n[nH]c(=O)c6ccccc56)ccc4F)CC3)c2)c(OC)c1	2680	4570	3120	2180	> 40000
COc1cc(OC)c(/C=C/S(=O)(=O)Cc2ccc(OC)c(NC(=O)CCCCC(=O)N3CCN(C(=O)c4cc(Cc5n[nH]c(=O)c6ccccc56)ccc4F)CC3)c2)c(OC)c1	4570	4850	3690	3760	> 40000
COc1cc(OC)c(/C=C/S(=O)(=O)Cc2ccc(OC)c(NC(=O)CCCC(=O)N3CCN(C(=O)c4cc(Cc5n[nH]c(=O)c6ccccc56)ccc4F)CC3)c2)c(OC)c1	2760	3640	2010	1930	> 40000
COc1cc(OC)c(/C=C/S(=O)(=O)Cc2ccc(OC)c(NC(=O)CCCC(=O)O)c2)c(OC)c1	3570	5760	3920	4820	> 40000

Stronger by IC50 (MDA-MB-231), values ahead:

IC50 (MDA-MB-231) [nM]	IC50 (MDA-MB-468) [nM]	IC50 (HCC1937) [nM]	IC50 (MDA-MB-436) [nM]	SMILES	IC50 at 72 h [1] [nM]
1280	1370	1990	1440	COc1cc(OC)c(/C=C/S(=O)(=O)Cc2ccc(OC)c(NCC(=O)N3CCN(C(=O)c4cc(Cc5n[nH]c(=O)c6ccccc56)ccc4F)CC3)c2)c(OC)c1	> 40000
1190	2940	1270	1550	COc1cc(OC)c(/C=C/S(=O)(=O)Cc2ccc(OC)c(NC(=O)CCC(=O)N3CCN(C(=O)c4cc(Cc5n[nH]c(=O)c6ccccc56)ccc4F)CC3)c2)c(OC)c1	> 40000
230	450	330	250	COc1cc(OC)c(/C=C/S(=O)(=O)Cc2ccc(OC)c(NCC(=O)O)c2)c(OC)c1 [RIGOSERTIB]	18400

Reference: ChEMBL document CHEMBL6127102 (Bioorg Med Chem, 2024)
